For 1 compound, Activity results are on record in ChEMBL document CHEMBL2073806, “Effect of PCB-126 on intracellular accumulation and transepithelial transport of vinblastine in LLC-PK1 and its transformant cells expressing human P-glycoprotein” (J Vet Med Sci, 2004).

In the data set the target is ATP-dependent translocase ABCB1 (Homo sapiens, UniProt P08183). As to the kind of experiment: TP_TRANSPORTER: transepithelial transport (basal to apical) in LLC-MDR1 cells. The data set is classed as functional, cell-based. As to conditions: pig.
Chain of ATP-dependent translocase ABCB1 (P08183 whole entry): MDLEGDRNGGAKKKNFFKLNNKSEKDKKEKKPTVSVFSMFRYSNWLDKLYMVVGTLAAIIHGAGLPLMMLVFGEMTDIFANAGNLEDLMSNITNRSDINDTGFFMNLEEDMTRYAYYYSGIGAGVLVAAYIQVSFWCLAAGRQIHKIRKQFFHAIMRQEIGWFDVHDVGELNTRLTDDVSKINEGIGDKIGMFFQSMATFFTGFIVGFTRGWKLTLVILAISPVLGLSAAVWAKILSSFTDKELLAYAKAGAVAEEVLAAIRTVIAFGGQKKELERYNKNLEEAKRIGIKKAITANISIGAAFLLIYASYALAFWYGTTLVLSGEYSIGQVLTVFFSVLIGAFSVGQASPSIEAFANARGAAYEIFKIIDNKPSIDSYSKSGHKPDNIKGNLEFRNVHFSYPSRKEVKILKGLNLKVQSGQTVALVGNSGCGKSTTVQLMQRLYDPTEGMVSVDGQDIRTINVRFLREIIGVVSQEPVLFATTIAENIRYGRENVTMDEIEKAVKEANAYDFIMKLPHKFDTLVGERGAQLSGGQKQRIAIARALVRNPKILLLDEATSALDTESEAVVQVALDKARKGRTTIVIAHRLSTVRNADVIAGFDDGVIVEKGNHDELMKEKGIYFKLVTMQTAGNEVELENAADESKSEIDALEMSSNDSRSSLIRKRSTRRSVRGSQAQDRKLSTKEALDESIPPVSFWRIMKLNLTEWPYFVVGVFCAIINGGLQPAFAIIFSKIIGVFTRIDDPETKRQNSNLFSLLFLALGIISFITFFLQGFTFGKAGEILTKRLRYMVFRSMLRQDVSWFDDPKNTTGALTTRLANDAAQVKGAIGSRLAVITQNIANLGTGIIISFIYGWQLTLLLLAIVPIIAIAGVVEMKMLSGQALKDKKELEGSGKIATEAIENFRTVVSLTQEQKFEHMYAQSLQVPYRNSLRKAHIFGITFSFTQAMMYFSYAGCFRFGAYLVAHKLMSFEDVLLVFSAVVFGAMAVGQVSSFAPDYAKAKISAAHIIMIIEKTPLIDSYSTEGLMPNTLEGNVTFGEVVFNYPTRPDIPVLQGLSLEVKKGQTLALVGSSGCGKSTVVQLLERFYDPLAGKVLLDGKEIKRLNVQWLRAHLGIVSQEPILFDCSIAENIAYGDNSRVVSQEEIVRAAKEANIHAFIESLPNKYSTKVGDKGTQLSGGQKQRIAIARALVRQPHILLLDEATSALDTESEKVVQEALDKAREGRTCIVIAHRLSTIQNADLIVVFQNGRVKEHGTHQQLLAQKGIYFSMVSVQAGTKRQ

On to `Clc1ccc(-c2cc(Cl)c(Cl)c(Cl)c2)cc1Cl` [POLYCHLORINATED BIPHENYL 126], for which the Activity entry was “substrate [+]”.
